The NIST ThermoML archive (doi:10.1016/j.jct.2008.09.002)

Key:
[1] = xn = mol fraction of the nth substance listed; details: 101.3 kPa, Liquid, Vibrating tube method
[2] = excess molar enthalpy (molar enthalpy of mixing); xn = mol fraction of the nth substance listed; details: 303.15 K, 101.3 kPa, Liquid, Calvet calorimetry
[3] = molar heat capacity at constant pressure; xn = mol fraction of the nth substance listed; details: 101.3 kPa, Liquid, Small sample (50 mg) DSC

C[N+](=O)[O-] [nitromethane] + CCOS(=O)(=O)[O-].CCn1cc[n+](C)c1
Details | mass density, [1] [kg/m3] | molar heat capacity at constant pressure, [3] [J/K/mol]
293.15 K, x2 = 0.0513 | 1162.5 | 120.8
293.15 K, x2 = 0.0991 | 1176.4 | 134.3
293.15 K, x2 = 0.2013 | 1196.4 | 164
293.15 K, x2 = 0.3095 | 1209.6 | 195.4
293.15 K, x2 = 0.4073 | 1217.8 | 223.5
293.15 K, x2 = 0.5056 | 1223.9 | –
293.15 K, x2 = 0.5489 | 1226.3 | 264
293.15 K, x2 = 0.5944 | 1228.3 | –
293.15 K, x2 = 0.689 | 1232.1 | 304
293.15 K, x2 = 0.7805 | 1235.1 | 329.9
293.15 K, x2 = 0.8817 | 1237.9 | 358.6
293.15 K, x2 = 0.9398 | 1239.3 | –
293.15 K, x2 = 0.9522 | 1239.6 | –
298.15 K, x2 = 0.0513 | 1156.4 | 121.1
298.15 K, x2 = 0.0991 | 1170.9 | 134.7
298.15 K, x2 = 0.2013 | 1191.5 | 164.6
298.15 K, x2 = 0.3095 | 1205.1 | 196.1
298.15 K, x2 = 0.4073 | 1213.6 | 224.4
298.15 K, x2 = 0.5056 | 1220 | –
298.15 K, x2 = 0.5489 | 1222.4 | 265.2
298.15 K, x2 = 0.5944 | 1224.5 | –
298.15 K, x2 = 0.689 | 1228.4 | 305.5
298.15 K, x2 = 0.7805 | 1231.5 | 331.6
298.15 K, x2 = 0.8817 | 1234.4 | 360.5
298.15 K, x2 = 0.9398 | 1235.8 | –
298.15 K, x2 = 0.9522 | 1236.2 | –
303.15 K, x2 = 0.0513 | 1150.4 | 121.6
303.15 K, x2 = 0.0991 | 1165.3 | 135.3
303.15 K, x2 = 0.2013 | 1186.6 | 165.3
303.15 K, x2 = 0.3095 | 1200.7 | 196.9
303.15 K, x2 = 0.4073 | 1209.5 | 225.5
303.15 K, x2 = 0.5056 | 1216 | –
303.15 K, x2 = 0.5489 | 1218.5 | 266.6
303.15 K, x2 = 0.5944 | 1220.7 | –
303.15 K, x2 = 0.689 | 1224.7 | 307.2
303.15 K, x2 = 0.7805 | 1228 | 333.5
303.15 K, x2 = 0.8817 | 1230.9 | 362.6
303.15 K, x2 = 0.9398 | 1232.4 | –
303.15 K, x2 = 0.9522 | 1232.7 | –
308.15 K, x2 = 0.0513 | 1144.3 | 122.1
308.15 K, x2 = 0.0991 | 1159.7 | 135.9
308.15 K, x2 = 0.2013 | 1181.7 | 166
308.15 K, x2 = 0.3095 | 1196.2 | 197.8
308.15 K, x2 = 0.4073 | 1205.3 | 226.7
308.15 K, x2 = 0.5056 | 1212.1 | –
308.15 K, x2 = 0.5489 | 1214.6 | 268.1
308.15 K, x2 = 0.5944 | 1216.9 | –
308.15 K, x2 = 0.689 | 1221 | 308.9
308.15 K, x2 = 0.7805 | 1224.4 | 335.5
308.15 K, x2 = 0.8817 | 1227.5 | 364.8
308.15 K, x2 = 0.9398 | 1229 | –
308.15 K, x2 = 0.9522 | 1229.3 | –
313.15 K, x2 = 0.0513 | 1138.2 | 122.7
313.15 K, x2 = 0.0991 | 1154.2 | 136.6
313.15 K, x2 = 0.2013 | 1176.9 | 166.8
313.15 K, x2 = 0.3095 | 1191.8 | 198.7
313.15 K, x2 = 0.4073 | 1201.2 | 227.9
313.15 K, x2 = 0.5056 | 1208.2 | –
313.15 K, x2 = 0.5489 | 1210.8 | 269.7
313.15 K, x2 = 0.5944 | 1213.1 | –
313.15 K, x2 = 0.689 | 1217.4 | 310.9
313.15 K, x2 = 0.7805 | 1220.9 | 337.7
313.15 K, x2 = 0.8817 | 1224 | 367.1
313.15 K, x2 = 0.9398 | 1225.6 | –
313.15 K, x2 = 0.9522 | 1225.9 | –
318.15 K, x2 = 0.0513 | 1132.2 | 123.2
318.15 K, x2 = 0.0991 | 1148.6 | 137.2
318.15 K, x2 = 0.2013 | 1172 | 167.6
318.15 K, x2 = 0.3095 | 1187.4 | 199.7
318.15 K, x2 = 0.4073 | 1197.1 | 229.2
318.15 K, x2 = 0.5056 | 1204.2 | –
318.15 K, x2 = 0.5489 | 1207 | 271.4
318.15 K, x2 = 0.5944 | 1209.3 | –
318.15 K, x2 = 0.689 | 1213.8 | 312.9
318.15 K, x2 = 0.7805 | 1217.3 | 340
318.15 K, x2 = 0.8817 | 1220.6 | 369.6
318.15 K, x2 = 0.9398 | 1222.2 | –
318.15 K, x2 = 0.9522 | 1222.5 | –

[2]
Details | excess molar enthalpy [kcal/mol]
x2 = 0.1001 | -0.0688
x2 = 0.1977 | -0.116
x2 = 0.3075 | -0.142
x2 = 0.4001 | -0.154
x2 = 0.5071 | -0.148
x2 = 0.6026 | -0.131
x2 = 0.6953 | -0.108
x2 = 0.8026 | -0.0736
x2 = 0.8668 | -0.05

C[N+](=O)[O-] [nitromethane] + CCn1cc[n+](C)c1.O=S(=O)([O-])C(F)(F)F
Details | mass density, [1] [kg/m3] | molar heat capacity at constant pressure, [3] [J/K/mol]
293.15 K, x2 = 0.0525 | 1186.8 | 119.2
293.15 K, x2 = 0.0981 | 1217.2 | 130.6
293.15 K, x2 = 0.2013 | 1266.6 | 157
293.15 K, x2 = 0.3063 | 1300.5 | 183.7
293.15 K, x2 = 0.4027 | 1323.1 | 208.2
293.15 K, x2 = 0.4995 | 1340.5 | 233.2
293.15 K, x2 = 0.5934 | 1353.9 | 257.3
293.15 K, x2 = 0.6847 | 1364.4 | 280.5
293.15 K, x2 = 0.7698 | 1372.6 | 301.6
293.15 K, x2 = 0.8671 | 1380.5 | 326.9
298.15 K, x2 = 0.0525 | 1180.5 | 119.5
298.15 K, x2 = 0.0981 | 1211.2 | 130.9
298.15 K, x2 = 0.2013 | 1261.1 | 157.6
298.15 K, x2 = 0.3063 | 1295.4 | 184.4
298.15 K, x2 = 0.4027 | 1318.2 | 209.1
298.15 K, x2 = 0.4995 | 1335.7 | 234.3
298.15 K, x2 = 0.5934 | 1349.2 | 258.5
298.15 K, x2 = 0.6847 | 1359.9 | 281.9
298.15 K, x2 = 0.7698 | 1368.2 | 303.3
298.15 K, x2 = 0.8671 | 1376.2 | 328.8
303.15 K, x2 = 0.0525 | 1174.3 | 120
303.15 K, x2 = 0.0981 | 1205.3 | 131.4
303.15 K, x2 = 0.2013 | 1255.7 | 158.3
303.15 K, x2 = 0.3063 | 1290.3 | 185.2
303.15 K, x2 = 0.4027 | 1313.3 | 210.1
303.15 K, x2 = 0.4995 | 1331 | 235.5
303.15 K, x2 = 0.5934 | 1344.7 | 259.9
303.15 K, x2 = 0.6847 | 1355.4 | 283.3
303.15 K, x2 = 0.7698 | 1363.8 | 305
303.15 K, x2 = 0.8671 | 1371.9 | 330.7
308.15 K, x2 = 0.0525 | 1168 | 120.4
308.15 K, x2 = 0.0981 | 1199.3 | 131.8
308.15 K, x2 = 0.2013 | 1250.2 | 159.1
308.15 K, x2 = 0.3063 | 1285.2 | 186.1
308.15 K, x2 = 0.4027 | 1308.4 | 211.1
308.15 K, x2 = 0.4995 | 1326.3 | 236.7
308.15 K, x2 = 0.5934 | 1340.1 | 261.3
308.15 K, x2 = 0.6847 | 1351 | 284.8
308.15 K, x2 = 0.7698 | 1359.4 | 306.7
308.15 K, x2 = 0.8671 | 1367.6 | 332.7
313.15 K, x2 = 0.0525 | 1161.7 | 121
313.15 K, x2 = 0.0981 | 1193.4 | 132.4
313.15 K, x2 = 0.2013 | 1244.8 | 160
313.15 K, x2 = 0.3063 | 1280.1 | 187
313.15 K, x2 = 0.4027 | 1303.6 | 212.1
313.15 K, x2 = 0.4995 | 1321.6 | 238
313.15 K, x2 = 0.5934 | 1335.5 | 262.7
313.15 K, x2 = 0.6847 | 1346.5 | 286.3
313.15 K, x2 = 0.7698 | 1355.1 | 308.5
313.15 K, x2 = 0.8671 | 1363.4 | 334.7
318.15 K, x2 = 0.0525 | 1155.4 | 121.4
318.15 K, x2 = 0.0981 | 1187.4 | 132.8
318.15 K, x2 = 0.2013 | 1239.3 | 160.8
318.15 K, x2 = 0.3063 | 1275 | 188
318.15 K, x2 = 0.4027 | 1298.7 | 213
318.15 K, x2 = 0.4995 | 1316.9 | 239.2
318.15 K, x2 = 0.5934 | 1331 | 264.2
318.15 K, x2 = 0.6847 | 1342.1 | 287.8
318.15 K, x2 = 0.7698 | 1350.7 | 310.3
318.15 K, x2 = 0.8671 | 1359.1 | 336.7

[2]
Details | excess molar enthalpy [kcal/mol]
x2 = 0.1234 | -0.0301
x2 = 0.2533 | -0.0457
x2 = 0.3774 | -0.0468
x2 = 0.5026 | -0.048
x2 = 0.6253 | -0.0399
x2 = 0.7438 | -0.0299
x2 = 0.8668 | -0.0139
